Consider 11 molecules from ChEMBL document CHEMBL4130452, “Design of Selective Benzoxazepin PI3Kδ Inhibitors Through Control of Dihedral Angles” (ACS Med Chem Lett, 2017).

A short description of series [1]: Stability in human liver microsomes at 1 uM in presence of NADPH by LC-MS/MS analysis. Format: ADME, microsome. The conditions noted are these: read-out: Stability. For orientation: Liver microsomes are a subcellular fraction often used to study metabolism.
For series [2], the target named is T1, Phosphatidylinositol 4,5-bisphosphate 3-kinase catalytic subunit delta isoform (Homo sapiens, UniProt O00329).
T1 sequence (O00329 whole entry): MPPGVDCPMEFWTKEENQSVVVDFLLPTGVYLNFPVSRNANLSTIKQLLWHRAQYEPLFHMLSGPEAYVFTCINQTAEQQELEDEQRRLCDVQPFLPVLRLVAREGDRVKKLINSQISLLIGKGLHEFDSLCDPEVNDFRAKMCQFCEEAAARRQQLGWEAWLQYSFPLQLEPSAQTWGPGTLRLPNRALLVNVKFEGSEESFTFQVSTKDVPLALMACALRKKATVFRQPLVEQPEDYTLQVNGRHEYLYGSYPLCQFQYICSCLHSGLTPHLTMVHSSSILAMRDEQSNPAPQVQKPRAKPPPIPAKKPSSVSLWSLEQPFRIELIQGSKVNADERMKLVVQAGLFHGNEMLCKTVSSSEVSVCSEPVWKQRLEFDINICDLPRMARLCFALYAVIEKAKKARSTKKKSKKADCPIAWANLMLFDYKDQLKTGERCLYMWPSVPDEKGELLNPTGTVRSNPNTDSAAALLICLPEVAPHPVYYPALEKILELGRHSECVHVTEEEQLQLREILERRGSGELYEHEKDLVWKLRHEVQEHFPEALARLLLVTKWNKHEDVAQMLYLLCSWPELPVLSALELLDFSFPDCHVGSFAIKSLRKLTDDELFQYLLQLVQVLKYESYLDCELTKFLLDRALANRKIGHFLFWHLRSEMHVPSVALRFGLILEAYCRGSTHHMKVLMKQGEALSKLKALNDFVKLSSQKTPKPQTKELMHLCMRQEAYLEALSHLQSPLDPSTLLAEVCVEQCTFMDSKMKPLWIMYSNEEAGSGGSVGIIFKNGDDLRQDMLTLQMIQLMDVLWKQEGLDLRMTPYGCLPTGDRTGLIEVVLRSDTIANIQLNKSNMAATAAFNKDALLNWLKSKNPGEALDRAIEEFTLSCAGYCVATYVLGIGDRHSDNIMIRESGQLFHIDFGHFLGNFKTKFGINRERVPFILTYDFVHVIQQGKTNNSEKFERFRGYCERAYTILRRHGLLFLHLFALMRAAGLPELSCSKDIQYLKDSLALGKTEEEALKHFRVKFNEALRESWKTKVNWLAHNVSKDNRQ
The series can be described thus: Binding affinity to PI3Kdelta (unknown origin). The conditions noted are these: read-out: Ki(app).

Series [3] in a line: Apparent permeability from apical to basolateral side in MDCKI cells at 10 uM after 2 hrs. It is filed as ADME, cell-based, Canis lupus familiaris. The conditions noted are these: dog, MDCK.
Series [4] has as its target T1, Phosphatidylinositol 4,5-bisphosphate 3-kinase catalytic subunit delta isoform. The series can be described thus: Inhibition of PI3Kdelta in human whole blood assessed as suppression of CD69 expression.

For the molecule `CC(C)n1ncnc1-c1cn2c(n1)-c1cc(CN3CCN(C(C)(C)C)CC3)ccc1OCC2`, in series [1], the CLhep predicted at 1 µM is 9.7 mL/min/kg. The Ki in series [2] worked out at 2.5 nM.
In the case of `CC(C)n1ncnc1-c1cn2c(n1)-c1cc(C(=O)N3CCN(C(C)(C)C)CC3)ccc1OCC2`, the CLhep predicted at 1 µM in series [1] is 14 mL/min/kg. The Ki in series [2] is 1.7 nM.
In general, Papp A→B refers to how fast a substance crosses the layer from the apical side. In general, IC50 refers to the point on the concentration scale where inhibition reaches its midpoint. For the molecule `Cc1nc(-c2cn3c(n2)-c2cc([C@@H](C)N4CCN(C(C)(C)C)CC4)c(F)cc2OCC3)n(C(C)C)n1`, in series [1], the CLhep predicted at 1 µM is 15 mL/min/kg. For the same molecule, in series [2], the Ki turned out to be 0.78 nM. Besides, the Papp A→B at 2 h, 10 µM in series [3] turned out to be 13.6 ×10⁻⁶ cm/s. Further, the IC50 in series [4] is 15 nM.
In the case of `Cc1nc(-c2cn3c(n2)-c2cc([C@H](C)N4CCN(C(C)(C)C)CC4)c(F)cc2OCC3)n(C(C)C)n1`, the Ki in series [2] came to 2.4 nM.
On to `Cc1nc(-c2cn3c(n2)-c2cc([C@@H](C)N4CCN(C(C)(C)C)CC4)c(C)cc2OCC3)n(C(C)C)n1`, for which, in series [1], the CLhep predicted at 1 µM is 8.4 mL/min/kg. For the same molecule, the Papp A→B at 2 h, 10 µM in series [3] was 14.2 ×10⁻⁶ cm/s.
Consider `Cc1nc(-c2cn3c(n2)-c2cc([C@H](C)N4CCN(C(C)(C)C)CC4)ncc2OCC3)n(C(C)C)n1`, for which the CLhep predicted at 1 µM in series [1] is below 3.9 mL/min/kg. Also, in series [2], the Ki was determined as 1.9 nM. For the same molecule, the Papp A→B at 2 h, 10 µM in series [3] turned out to be 10 ×10⁻⁶ cm/s. Further, the IC50 in series [4] was found to be 28 nM.
Consider `Cc1nc(-c2cn3c(n2)-c2cc([C@@H](C)N4CCN(C(C)(C)C)CC4)ncc2OCC3)n(C(C)C)n1`, for which the Ki in series [2] was 2.8 nM.
As to `CC(C)n1ncnc1-c1cn2c(n1)-c1cc(S(=O)(=O)N3CCN(C(C)(C)C)CC3)ccc1OCC2`, in series [1], the CLhep predicted at 1 µM is 20 mL/min/kg. Also, the Ki in series [2] amounted to 1.2 nM.
`CC(C)n1ncnc1-c1cn2c(n1)-c1cc(CN3CCC(C(C)(C)O)CC3)ccc1OCC2`: the CLhep predicted at 1 µM in series [1] was 6.8 mL/min/kg. In addition, the Ki in series [2] was found to be 20 nM.
Consider `CC(C)n1ncnc1-c1cn2c(n1)-c1cc([S@+]([O-])C3CCN(C(C)(C)C)CC3)ccc1OCC2`, for which, in series [1], the CLhep predicted at 1 µM is 12 mL/min/kg. Besides, the Ki in series [2] was determined as 12 nM.
On to `CC(C)n1ncnc1-c1cn2c(n1)-c1cc([S@@+]([O-])C3CCN(C(C)(C)C)CC3)ccc1OCC2`, for which, in series [1], the CLhep predicted at 1 µM was 17 mL/min/kg. The Ki in series [2] was found to be 0.81 nM.
